Laboratory results taken from ChEMBL document CHEMBL1201862, “PubChem BioAssay data set” (2004).
Active and inactive are the calls of the source. For most assays here, no stated cut-off is given here; in the data, actives have a measured EC50 and inactives only a lower limit.

Assays:
[1] = molecular target: Luciferin 4-monooxygenase (Photinus pyralis, UniProt P08659); assay: inhibition of purified Photinus pyralis luciferase – biochemical, luminescence, dose response (AID 1891)
[2] = Luminescence Cell-Based Dose Confirmation HTS to Identify Inhibitors of Platelet Dense Granule Release. [Related pubchem assays: 1663 (Primary HTS), 1678 (Summary of Project)]; type: functional
Genome polyprotein = Genome polyprotein (dengue virus type 2, UniProt P29990); assay: flavivirus cap methylation enzyme inhibition – biochemical, confirmation dose response, primary screen (AID 588689); type: functional
[3] = molecular target: T1, RNA-binding protein pos-1 (Caenorhabditis elegans, UniProt G5EF15); assay: disruptors of C. elegans POS-1 RNA interaction – biochemical, fluorescence polarization, dose response (AID 1964);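 further: purified POS-1 fused to maltose binding protein made in E. coli; potency of compounds blocking POS-1 binding to fluorescent RNA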
T1 sequence (G5EF15 whole entry): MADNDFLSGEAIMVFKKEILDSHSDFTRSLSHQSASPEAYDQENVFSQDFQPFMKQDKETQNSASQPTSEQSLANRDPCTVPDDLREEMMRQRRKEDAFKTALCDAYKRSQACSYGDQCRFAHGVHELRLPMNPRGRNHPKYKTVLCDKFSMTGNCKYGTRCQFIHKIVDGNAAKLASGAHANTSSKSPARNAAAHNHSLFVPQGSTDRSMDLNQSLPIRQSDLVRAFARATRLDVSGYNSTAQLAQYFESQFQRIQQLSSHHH

[4] = molecular target: T2, Zinc finger protein mex-5 (Caenorhabditis elegans, UniProt Q9XUB2); assay: potency of MEX-5 RNA-binding blockers – biochemical, C. elegans, fluorescence polarization, dose response (AID 1960)
T2 sequence (Q9XUB2 whole entry): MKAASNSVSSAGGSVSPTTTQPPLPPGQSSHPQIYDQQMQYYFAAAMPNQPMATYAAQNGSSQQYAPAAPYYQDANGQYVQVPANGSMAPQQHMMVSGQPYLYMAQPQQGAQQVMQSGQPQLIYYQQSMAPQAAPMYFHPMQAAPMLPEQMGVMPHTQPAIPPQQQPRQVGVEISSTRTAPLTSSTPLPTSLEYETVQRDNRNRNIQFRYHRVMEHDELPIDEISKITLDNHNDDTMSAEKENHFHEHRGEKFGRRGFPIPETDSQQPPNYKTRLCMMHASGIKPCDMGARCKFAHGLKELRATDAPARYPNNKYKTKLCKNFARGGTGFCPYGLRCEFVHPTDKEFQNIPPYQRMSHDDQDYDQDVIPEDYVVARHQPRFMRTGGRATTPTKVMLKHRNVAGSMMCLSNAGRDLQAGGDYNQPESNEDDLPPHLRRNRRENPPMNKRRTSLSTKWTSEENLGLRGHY

[5] = molecular target: FAD-linked sulfhydryl oxidase ALR (Homo sapiens, UniProt P55789); assay: ALR-catalysed DTT oxidation blockers – biochemical, H2O2 detection, luminescence, cherry-pick, dose response (AID 493248)
[6] = test system: Streptococcus sp. 'group A'; assay: Streptococcus pyogenes SK(-)GAS viability under kanamycin – luminescence, BacTiterGlo, confirmation, counter-screen for streptokinase expression inhibitor project, dose response (AID 1900); type: functional, organism-based
Streptokinase A = molecular target: T3, Streptokinase A (Streptococcus pyogenes serotype M1, UniProt P10520); assay: viability-normalized secreted streptokinase activity reduction – plasminogen activation absorbance, OD405, dose response (AID 1914); type: functional, Streptococcus pyogenes M1 GAS;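 further: secreted streptokinase activity via plasminogen activation per viability signal from cell pellet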
T3 sequence (P10520 whole entry): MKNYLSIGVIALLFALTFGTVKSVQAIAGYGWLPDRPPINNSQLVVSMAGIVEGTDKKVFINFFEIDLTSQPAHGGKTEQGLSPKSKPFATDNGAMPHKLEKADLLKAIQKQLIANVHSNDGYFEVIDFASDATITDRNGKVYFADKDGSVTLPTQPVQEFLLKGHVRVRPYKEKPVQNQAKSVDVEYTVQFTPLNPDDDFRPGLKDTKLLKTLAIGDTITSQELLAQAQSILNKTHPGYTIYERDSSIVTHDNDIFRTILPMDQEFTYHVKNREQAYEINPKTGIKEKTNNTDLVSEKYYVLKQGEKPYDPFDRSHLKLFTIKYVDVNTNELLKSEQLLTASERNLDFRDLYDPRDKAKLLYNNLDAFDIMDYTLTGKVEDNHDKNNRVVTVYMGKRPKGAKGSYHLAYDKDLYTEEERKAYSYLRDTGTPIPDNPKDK

Streptococcus = assay: GAS UMAA2166 growth inhibition – luminescence, BacTiterGlo, counter-screen for streptokinase expression inhibitor project, dose response (AID 1915); type: functional, organism-based;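 further: potency for reduction of bacterial viability or growth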
H9c2 = assay: cells; type: functional, cell-based; details: Rattus norvegicus, H9c2, Myocardium;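 further: confirmatory concentration-response retest of ultra-high-throughput screening hits for modulation of myocardial damage; cell death induced by hydrogen peroxide oxidative stress; compound pretreatment for 60 min then peroxide exposure for 2 h; potency is for protecting the cells against peroxide damage rather than for killing them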
Cytochrome P450 1A2 = molecular target: T4, Cytochrome P450 1A2 (Homo sapiens, UniProt P05177);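 further: PubChem cytochrome P450 panel assay, CYP1A2 panel member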
T4 sequence (P05177 whole entry): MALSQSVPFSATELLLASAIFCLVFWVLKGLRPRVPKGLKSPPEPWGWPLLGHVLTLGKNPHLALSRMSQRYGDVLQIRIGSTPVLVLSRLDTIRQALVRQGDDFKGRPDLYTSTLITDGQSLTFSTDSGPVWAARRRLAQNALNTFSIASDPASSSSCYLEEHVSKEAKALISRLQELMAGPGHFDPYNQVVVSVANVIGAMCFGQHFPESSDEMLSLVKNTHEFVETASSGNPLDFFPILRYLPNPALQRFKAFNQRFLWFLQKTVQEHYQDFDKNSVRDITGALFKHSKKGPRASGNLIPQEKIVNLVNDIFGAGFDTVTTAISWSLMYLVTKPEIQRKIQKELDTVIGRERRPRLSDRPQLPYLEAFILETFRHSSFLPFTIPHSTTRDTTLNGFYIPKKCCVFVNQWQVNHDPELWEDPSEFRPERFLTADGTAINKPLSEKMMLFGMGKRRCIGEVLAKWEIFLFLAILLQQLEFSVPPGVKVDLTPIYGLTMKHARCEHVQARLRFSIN

Cytochrome P450 3A4 = Cytochrome P450 3A4 (Homo sapiens, UniProt P08684);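 further: CYP3A4 tested as one member of a cytochrome P450 panel screen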
BJ [7] = assay: BJ-TERT fibroblast viability loss – cell-based, RAS-independent, luminescence, dose response (AID 1933); type: functional; details: Homo sapiens
BJ [8] = assay: cells; type: functional, cell-based; details: Homo sapiens
[9] = DRD fibroblast viability loss – cell-based, non-viral oncogenic, luminescence, dose response (AID 1934); type: functional; details: Homo sapiens
[10] = molecular target: T5, Heat shock factor protein 1 (Mus musculus, UniProt P38532); assay: decrease of HSF1-responsive luciferase luminescence – cell-based, NIH3T3, dose retest, confirmation (AID 2382); type: functional;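 further: NIH3T3 fibroblasts with HSF1-driven luciferase reporter stressed by proteasome inhibitor MG132; luminescence from HSF1-driven luciferase expression after 8 hours of MG132 stress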
T5 sequence (P38532 whole entry): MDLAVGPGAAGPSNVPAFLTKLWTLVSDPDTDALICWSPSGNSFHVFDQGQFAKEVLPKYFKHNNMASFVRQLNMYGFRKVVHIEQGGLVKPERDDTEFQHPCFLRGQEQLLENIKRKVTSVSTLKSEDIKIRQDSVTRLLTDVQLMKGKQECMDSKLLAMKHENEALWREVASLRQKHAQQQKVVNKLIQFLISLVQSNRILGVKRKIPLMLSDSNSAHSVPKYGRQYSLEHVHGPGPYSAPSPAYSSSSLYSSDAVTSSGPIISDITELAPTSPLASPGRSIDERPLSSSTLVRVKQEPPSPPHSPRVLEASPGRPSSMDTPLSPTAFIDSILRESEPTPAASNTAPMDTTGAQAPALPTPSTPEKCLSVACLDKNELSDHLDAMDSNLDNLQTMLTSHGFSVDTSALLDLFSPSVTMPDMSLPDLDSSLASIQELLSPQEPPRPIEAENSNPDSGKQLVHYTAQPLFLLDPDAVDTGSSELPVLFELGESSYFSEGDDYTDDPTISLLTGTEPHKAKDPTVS

[11] = reduction of Shn3 3'UTR-driven luciferase in osteoblasts – cell-based, Clone20 osteoblasts, firefly luciferase, cherry-picked, dose response (AID 624132); type: functional;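 further: firefly luciferase luminescence from reporter carrying the Shn3 3'UTR in osteoblasts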
[12] = molecular target: T6, Corticotropin-releasing factor receptor 2/Corticotropin-releasing factor-binding protein (Homo sapiens, UniProt P24387+Q13324); assay: Dose Response confirmation of uHTS hits for small molecule antagonists of the CRF-binding protein and CRF-R2 receptor complex.; type: functional; details: read-out: IC50_Mean
T6 sequence (Q13324 whole entry): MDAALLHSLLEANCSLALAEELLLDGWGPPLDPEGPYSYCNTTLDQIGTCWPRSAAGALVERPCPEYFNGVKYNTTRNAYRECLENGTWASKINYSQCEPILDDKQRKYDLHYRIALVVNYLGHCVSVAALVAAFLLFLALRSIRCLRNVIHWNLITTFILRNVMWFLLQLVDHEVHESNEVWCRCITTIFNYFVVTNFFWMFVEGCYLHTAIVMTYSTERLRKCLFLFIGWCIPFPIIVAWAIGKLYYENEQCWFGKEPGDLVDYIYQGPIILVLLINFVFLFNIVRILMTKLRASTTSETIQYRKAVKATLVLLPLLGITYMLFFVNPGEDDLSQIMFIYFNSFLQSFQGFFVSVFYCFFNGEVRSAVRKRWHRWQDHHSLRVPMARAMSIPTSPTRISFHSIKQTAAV
T6 sequence (P24387 whole entry): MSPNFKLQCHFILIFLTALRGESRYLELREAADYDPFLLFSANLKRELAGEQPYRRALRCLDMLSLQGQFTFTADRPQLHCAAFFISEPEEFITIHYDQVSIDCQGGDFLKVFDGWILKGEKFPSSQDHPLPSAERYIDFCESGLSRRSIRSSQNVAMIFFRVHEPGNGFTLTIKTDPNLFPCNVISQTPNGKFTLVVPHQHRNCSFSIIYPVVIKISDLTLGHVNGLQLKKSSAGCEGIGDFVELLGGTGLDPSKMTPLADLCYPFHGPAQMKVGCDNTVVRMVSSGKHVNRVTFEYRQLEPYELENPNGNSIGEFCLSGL

[13] = molecular target: T6, Corticotropin-releasing factor receptor 2/Corticotropin-releasing factor-binding protein; assay: activators of CRF receptor 2 with binding protein – uHTS hits, confirmation (AID 602473); type: functional; details: read-out: EC50_Mean

Sequence of Luciferin 4-monooxygenase (P08659 whole entry): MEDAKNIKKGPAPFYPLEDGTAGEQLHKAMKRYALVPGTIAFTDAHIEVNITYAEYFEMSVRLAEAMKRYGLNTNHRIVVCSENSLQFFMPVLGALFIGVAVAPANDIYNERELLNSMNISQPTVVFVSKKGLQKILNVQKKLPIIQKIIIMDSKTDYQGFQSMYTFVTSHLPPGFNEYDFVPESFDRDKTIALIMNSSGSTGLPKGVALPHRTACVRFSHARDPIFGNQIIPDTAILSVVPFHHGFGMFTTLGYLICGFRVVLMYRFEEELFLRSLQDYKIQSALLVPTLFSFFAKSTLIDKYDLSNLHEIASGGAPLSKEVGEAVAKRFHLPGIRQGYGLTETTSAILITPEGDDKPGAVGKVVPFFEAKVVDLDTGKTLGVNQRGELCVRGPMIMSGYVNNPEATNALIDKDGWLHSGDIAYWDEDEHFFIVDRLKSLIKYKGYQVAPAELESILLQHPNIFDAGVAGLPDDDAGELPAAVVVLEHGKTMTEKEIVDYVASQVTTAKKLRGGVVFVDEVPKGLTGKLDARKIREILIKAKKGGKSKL
Sequence of Genome polyprotein (P29990 2492-3391 limits assumed): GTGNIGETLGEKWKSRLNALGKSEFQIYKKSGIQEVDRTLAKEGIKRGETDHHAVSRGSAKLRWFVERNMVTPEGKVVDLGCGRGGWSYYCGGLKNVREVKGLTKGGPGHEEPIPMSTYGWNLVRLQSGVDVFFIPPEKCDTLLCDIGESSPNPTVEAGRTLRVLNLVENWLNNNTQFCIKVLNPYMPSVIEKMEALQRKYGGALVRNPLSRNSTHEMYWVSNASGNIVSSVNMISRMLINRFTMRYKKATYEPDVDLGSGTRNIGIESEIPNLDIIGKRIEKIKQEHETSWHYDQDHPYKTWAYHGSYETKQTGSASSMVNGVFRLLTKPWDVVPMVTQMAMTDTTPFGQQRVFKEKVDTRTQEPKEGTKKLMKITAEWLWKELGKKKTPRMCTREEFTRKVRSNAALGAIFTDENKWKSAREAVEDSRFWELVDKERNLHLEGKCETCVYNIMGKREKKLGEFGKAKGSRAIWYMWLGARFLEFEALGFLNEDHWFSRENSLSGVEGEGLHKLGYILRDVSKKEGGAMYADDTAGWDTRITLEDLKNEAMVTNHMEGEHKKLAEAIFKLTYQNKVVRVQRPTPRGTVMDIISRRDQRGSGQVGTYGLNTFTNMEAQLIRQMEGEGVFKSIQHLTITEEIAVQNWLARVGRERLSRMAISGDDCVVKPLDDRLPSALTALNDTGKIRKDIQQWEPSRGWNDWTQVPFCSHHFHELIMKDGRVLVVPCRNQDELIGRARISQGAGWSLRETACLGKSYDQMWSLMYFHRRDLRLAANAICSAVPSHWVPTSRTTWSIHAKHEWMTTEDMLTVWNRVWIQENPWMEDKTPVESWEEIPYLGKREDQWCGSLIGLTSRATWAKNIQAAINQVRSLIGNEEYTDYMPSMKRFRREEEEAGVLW
Sequence of FAD-linked sulfhydryl oxidase ALR (P55789 whole entry): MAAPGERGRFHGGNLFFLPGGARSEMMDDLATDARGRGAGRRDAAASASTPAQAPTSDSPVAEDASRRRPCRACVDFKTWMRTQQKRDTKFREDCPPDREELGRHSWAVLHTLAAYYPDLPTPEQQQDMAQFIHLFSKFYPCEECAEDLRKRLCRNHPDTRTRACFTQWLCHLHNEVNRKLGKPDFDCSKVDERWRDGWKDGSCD
Sequence of Cytochrome P450 3A4 (P08684 whole entry): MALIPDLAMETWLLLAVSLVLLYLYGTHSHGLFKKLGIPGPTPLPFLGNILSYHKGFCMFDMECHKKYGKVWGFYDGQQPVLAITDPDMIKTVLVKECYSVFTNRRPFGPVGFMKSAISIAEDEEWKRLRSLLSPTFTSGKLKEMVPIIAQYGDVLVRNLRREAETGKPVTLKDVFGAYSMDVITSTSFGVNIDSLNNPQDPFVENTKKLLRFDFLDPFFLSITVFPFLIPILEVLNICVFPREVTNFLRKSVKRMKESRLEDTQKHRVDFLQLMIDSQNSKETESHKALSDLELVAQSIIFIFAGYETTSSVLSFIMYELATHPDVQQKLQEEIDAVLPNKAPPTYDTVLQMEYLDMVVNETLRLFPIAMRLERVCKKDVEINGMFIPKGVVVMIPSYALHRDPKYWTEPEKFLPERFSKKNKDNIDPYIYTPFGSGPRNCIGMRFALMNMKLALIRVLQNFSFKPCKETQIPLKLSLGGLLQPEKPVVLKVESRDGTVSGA

CCOC(=O)N1CCN(C(=O)CNC2CCCCCCC2)CC1
EC50 [1]: > 112 µM (not active) | EC50 [2]: 16.7 µM (active)

COC(=O)CC1=NN(c2ccccc2)C(=O)/C1=C\c1ccc(OC)cc1
IC50 (Genome polyprotein): 33.3 µM (active)

CC(=O)N(C)c1ccc(N=NC2C(=O)N(C(N)=S)N=C2C)cc1 (stereo unspecified)
EC50 [3]: > 300 µM (not active) | EC50 [4]: 34.6 µM (active)

COc1ccccc1N1C(=O)NC(=O)/C(=C\c2c[nH]c3ccccc23)C1=O
EC50 [3]: > 300 µM (not active) | EC50 [4]: > 300 µM (not active)

CC1CCCCC1NC(=O)c1ccc(S(=O)(=O)NNC(=O)c2ccncc2)cc1 (stereo unspecified)
AC50 [5]: 2.99 µM (active)

O=C(O)c1ccccc1NS(=O)(=O)c1cccc(NS(=O)(=O)c2cc(Br)ccc2Br)c1
IC50 (Genome polyprotein): 28.3 µM (active)

CC(=O)Oc1ccc(-c2cc3ccc(OC(C)=O)cc3oc2=O)cc1
EC50 [1]: > 112 µM (not active)

CCOC(=O)c1c(NC(=O)Nc2ccc(F)cc2)sc2c1CCN(C)C2
EC50 [3]: 27.7 µM (inconclusive) | EC50 [4]: 39.8 µM (active)

CN(C)c1ccc(NC(=O)CCn2c(=S)oc3ccccc32)cc1
AC50 [5]: 14.6 µM (active)

O=C(NC1CCCCC1)N(C1=NCCCCC1)c1ccc(Br)cc1
EC50 [1]: > 112 µM (not active) | EC50 [2]: > 112 µM (not active)

CSC1=C(C#N)C(=O)NC(c2ccccc2O)S1 (stereo unspecified)
IC50 (Genome polyprotein): 45.2 µM (active)

O=C(NNC(=O)c1ccccc1OCc1ccccc1Cl)c1csc(N2CCOCC2)n1
EC50 [6]: 12.8 µM (active) | EC50 (Streptokinase A): > 150 µM (not active) | EC50 (Streptococcus): > 150 µM (not active) | IC50 (H9c2): 12.8 µM (active)

CCC(=O)OC1(C)C(=O)C=C2C=C(c3ccsc3)OC=C2C1=O (stereo unspecified)
EC50 [3]: 34.1 µM (active) | EC50 [4]: 32.5 µM (active)

Cc1cccc(C(=O)O/N=C(\N)c2ccccn2)c1
EC50 [1]: 7.75 µM (active) | EC50 [2]: 20.4 µM (active)

CCOc1cc(/C=C2\C(=O)ON=C2c2ccccc2)ccc1OC
IC50 (Genome polyprotein): 27.1 µM (active)

C[C@H](NC1=NS(=O)(=O)c2ccccc21)C(=O)OCc1cc([N+](=O)[O-])cc2c1OCOC2
EC50 [1]: > 112 µM (not active) | EC50 [2]: > 112 µM (not active)

CCc1nnc2n1N=C(c1ccc([N+](=O)[O-])cc1)CS2
AC50 [5]: 6.01 µM (active)

CCOC(=O)C1=C(O)/C(=C/c2cc(OC)c(OC)c(OC)c2)N=C1C
EC50 [1]: > 112 µM (not active) | EC50 [2]: > 112 µM (not active) | AC50 (Cytochrome P450 1A2): 14.1 µM (inconclusive) | AC50 (Cytochrome P450 3A4): 17.8 µM (inconclusive)

CCc1ccc(/C=C2\SC(=S)N(CCC(=O)NCCCN3CCOCC3)C2=O)cc1
EC50 (BJ [7]): 1.24 µM (active) | EC50 (BJ [8]): > 150 µM (not active) | EC50 [9]: 5.87 µM (active)

CCN=C(S)N(C)CCc1cc2c(c(OC)c1C=C1C(=O)N(C)C(=O)N(C)C1=O)OCO2
EC50 [3]: > 300 µM (not active) | EC50 [4]: > 300 µM (not active) | EC50 [10]: > 195 µM (not active)

O=C(NCC1CCCO1)c1cccc(NC(=O)c2ccc(Br)cc2)c1 (stereo unspecified)
EC50 [1]: > 112 µM (not active) | EC50 [2]: > 112 µM (not active)

CCC(C)NC(=O)c1cc(-c2ccccc2O)on1 (stereo unspecified)
EC50 [1]: > 112 µM (not active) | EC50 [2]: > 112 µM (not active)

CCC(=O)N1CCN=C1SCc1cccc(C(F)(F)F)c1
AC50 [5]: 4.38 µM (active)

Nc1nnc(SCC(=O)Nc2ccc(N3CCOCC3)cc2)s1
AC50 [11]: 16.8 µM (active)

CC1(C)CC(=O)C2=C(C1)OC(/N=C/N1CCCC1)=C(C#N)C2c1ccccc1 (stereo unspecified)
EC50 [3]: > 300 µM (not active) | EC50 [4]: > 300 µM (not active) | IC50 [12]: > 47.1 µM (inactive) | EC50 [13]: > 53 µM (inactive)

COc1cc(/C=N/N2C(C)CCCC2C)cc(OC)c1O (stereo unspecified)
AC50 [5]: 1.1 µM (active)

COc1cc(/C=N/NC(=O)c2cccc(S(=O)(=O)N3CCCC3)c2)cc(OC)c1O
AC50 [5]: 0.039 µM (active)

Cc1ccc(CN2CCN(/N=C/c3ccc(O)c(O)c3)CC2)cc1
AC50 [5]: 3.11 µM (active)
